Assay results reported in PMC3574224, “Na^+ Regulation in the Malaria Parasite Plasmodiumfalciparum Involves the Cation ATPase PfATP4 and Is a Target of the Spiroindolone Antimalarials” (Cell Host & Microbe, 2013).

Tested on: P. falciparum trophozoites
Assay: Recovery of [Na^+]i from an imposed intracellular Na^+ load (K^+ removal and restoration)
Assay type: cell-based, Plasmodium falciparum
Details: added with 10 mM KCl
Description: The mechanism responsible for the increase in [Na^+]i seen upon removal of extracellular K^+ was not investigated further here. However, the phenomenon does provide a useful means of imposing an intracellular Na^+ load on the parasite and of testing the effect of inhibitors on the net efflux of Na^+ from the Na^+-loaded parasite.
The [Na^+]i of saponin-isolated parasites was measured at 37°C using the Na^+-sensitive dye SBFI (Molecular Probes, Invitrogen) in conjunction with a PerkinElmer LS 50B Fluorescence Spectrometer fitted with a Dual Excitation Fast Filter. Saponin-isolated parasites were loaded with SBFI by suspension (at 1.40–1.80 × 10^8 cells/mL) for 20 min at 37°C in bicarbonate-free RPMI1640 supplemented with 20 mM D-glucose, 0.2 mM hypoxanthine, 25 mM HEPES, and 25 mg/L gentamycin sulfate (pH 7.10), to which SBFI-acetoxymethyl ester (5.5 μM) and Pluronic F-127 (0.01% w/v) were added. The dye-loaded cells were washed twice (12,000 × g, 0.5 min) in bicarbonate-free RPMI then incubated for a further 20 min at 37°C to allow for complete de-esterification of the dye before being resuspended at a final cell concentration of 1.5–2.5 × 10^7 cells/mL in standard saline. The dye-loaded cells were excited at 340 nm and 380 nm with fluorescence recorded at 490 nm. Calibration of the relationship between the 340/380 nm fluorescence ratio and [Na^+]i (see Figures S1A–S1C) was carried out as described previously ([Diarra et al., 2001]; [Harootunian et al., 1989]). Several inhibitors used in this study caused inner filter effects ([Gu and Kenny, 2009]; [Srinivas and Mutharasan, 1987]); in these cases calibration curves were generated with the inhibitors present.
The rate of efflux of Na^+ from the cells, following an imposed intracellular Na^+ load, was estimated by fitting the following function to the [Na^+]i traces: [Na^+]i = Δ[Na^+]i^max × e^-at + [Na^+]i^final, where Δ[Na^+]i^max is the increase in [Na^+]i above the normal resting value (following the imposition of an intracellular Na^+-load), t is the time after the commencement of efflux (on addition of extracellular K^+), a is a fitted constant, and [Na^+]i^final is the final value of [Na^+]i. The initial Na^+ efflux rate (at t = 0) is a × Δ[Na^+]i^max, and the half-time to complete recovery (t1/2) is ln(0.5)/-a.

C[C@H]1Cc2c([nH]c3cc(F)c(F)cc23)[C@@]2(N1)C(=O)Nc1ccc(Cl)cc12 [NITD246]
Effect on recovery of [Na^+]i after Na^+ load (1 nM): [Na^+]i remaining at the level reached at the point of addition of extracellular K^+
Effect on recovery of [Na^+]i after Na^+ load (5 nM): prolonged time-dependent increase in [Na^+]i
